Legend:
[1] = Critical micellar concentration (ANS fluorescence); format: physicochemical; conditions: for CMC compared with native (underivatised) saponin: comparison in words; for CMC: SO saponins, determined in PBS, Table A7
Protocol: The critical micellar concentration (CMC) of saponins derived from Saponaria officinalis (SO) (Table A7) and derived from Quillaja saponaria (QS) (Table A8, and Table A9) was determined by the method of DeVendittis et al. (A fluorimetric method for the estimation of the critical micelle concentration of surfactants, Analytical Biochemistry, Volume 115, Issue 2, August 1981, Pages 278-286) as follows:
The emission spectrum of 8-Anilinonaphthalene-1-sulfonic acid (ANS) in either purified water (MQ) or PBS (Dulbecco's PBS+/+) was determined at dry weight concentrations of saponins ranging from 1 to 1400 μM to cover the range below and above the CMC. Above the CMC, the fluorescence yield of ANS increases and the wavelength of maximum emission decreases due to portioning of the fluorescent dye into micelles. Fluorescence yields were recorded on a Fluoroskan Ascent FL (Thermo Scientific) at an excitation wavelength of 355 nm, and an emission wavelength of 460 nm. 6 μg at a concentration of 75.86 μM of ANS were used per sample and measurement.

[2] = tested on: EGFR expressing cells (HeLa); test: cells; conditions: summary statement in the description

SMILES	CMC compared with native (underivatised) saponin [1]	endosomal escape enhancing activity (enhancement of cytotoxicity of ADC / effector molecules) [2]	other results
CC1OC(OC2C(C)OC(OC(=O)[C@]34CCC(C)(C)CC3C3=CCC5[C@@]6(C)CC[C@H](OC7OC(C(=O)NCCN8C(=O)C=CC8=O)C(O)C(OC8OCC(O)C(O)C8O)C7OC7OC(CO)C(O)C(O)C7O)[C@@](C)(C=O)C6CC[C@@]5(C)[C@]3(C)C[C@H]4O)C(OC3OC(C)C(OC4OCC(O)C(OC5OC(CO)C(O)C(O)C5O)C4O)C(O)C3O)C2O)C(O)C(OC2OCC(O)C(O)C2O)C1O (stereo partly drawn) [SO1861-(Glu-AEM)-(Ac—OH)]	lower CMC values	–	–
CC1OC(OC2C(C)OC(OC(=O)[C@]34CCC(C)(C)CC3C3=CCC5[C@@]6(C)CC[C@H](OC7OC(C(=O)O)C(O)C(OC8OCC(O)C(O)C8O)C7OC7OC(CO)C(O)C(O)C7O)[C@@](C)(C=O)C6CC[C@@]5(C)[C@]3(C)C[C@H]4O)C(OC3OC(C)C(OC4OCC(O)C(OC5OC(CO)C(O)C(O)C5O)C4O)C(O)C3O)C2O)C(O)C(OC2OCC(O)C(O)C2O)C1O (stereo partly drawn) [SO1861-Ac—OH]	higher CMC values	–	–
CC1OC(OC2C(C)OC(OC(=O)[C@]34CCC(C)(C)CC3C3=CCC5[C@@]6(C)CC[C@H](OC7OC(C(=O)NC(C)(CO)CO)C(O)C(OC8OCC(O)C(O)C8O)C7OC7OC(CO)C(O)C(O)C7O)[C@@](C)(C=O)C6CC[C@@]5(C)[C@]3(C)C[C@H]4O)C(OC3OC(C)C(OC4OCC(O)C(OC5OC(CO)C(O)C(O)C5O)C4O)C(O)C3O)C2O)C(O)C(OC2OCC(O)C(O)C2O)C1O (stereo partly drawn) [SO1861-(Ac—OH)-(Glu-AMPD)]	lower CMC values	–	–
CC(=O)OC1C(C)OC(OC2C(C)OC(OC(=O)[C@]34CCC(C)(C)CC3C3=CCC5[C@@]6(C)CC[C@H](OC7OC(C(=O)O)C(O)C(OC8OCC(O)C(O)C8O)C7OC7OC(CO)C(O)C(O)C7O)[C@@](C)(CO)C6CC[C@@]5(C)[C@]3(C)C[C@H]4O)C(OC3OC(C)C(OC4OCC(O)C(OC5OC(CO)C(O)C(O)C5O)C4O)C(O)C3O)C2O)C(O)C1OC1OCC(O)C(O)C1O (stereo partly drawn) [SO1861-Ald-OH]	higher CMC values	–	–
CC(=O)OC1C(C)OC(OC2C(C)OC(OC(=O)[C@]34CCC(C)(C)CC3C3=CCC5[C@@]6(C)CC[C@H](OC7OC(C(=O)NC(C)(CO)CO)C(O)C(OC8OCC(O)C(O)C8O)C7OC7OC(CO)C(O)C(O)C7O)[C@@](C)(C=O)C6CC[C@@]5(C)[C@]3(C)C[C@H]4O)C(OC3OC(C)C(OC4OCC(O)C(OC5OC(CO)C(O)C(O)C5O)C4O)C(O)C3O)C2O)C(O)C1OC1OCC(O)C(O)C1O (stereo partly drawn) [Molecule 3A]	–	display activity	–
CC1OC(OC2C(C)OC(OC(=O)[C@]34CCC(C)(C)CC3C3=CCC5[C@@]6(C)CC[C@H](OC7OC(C(=O)NCCN8C(=O)C=CC8=O)C(O)C(OC8OCC(O)C(O)C8O)C7OC7OC(CO)C(O)C(O)C7O)[C@@](C)(CO)C6CC[C@@]5(C)[C@]3(C)C[C@H]4O)C(OC3OC(C)C(OC4OCC(O)C(OC5OC(CO)C(O)C(O)C5O)C4O)C(O)C3O)C2O)C(O)C(OC2OCC(O)C(O)C2O)C1O (stereo partly drawn) [SO1861-(Glu-AEM)-(Ald-OH)-(Ac—OH)]	–	–	CMC [1]: >150 µM
CC1OC(OC2C(C)OC(OC(=O)C34CCC(C)(C)CC3C3=CCC5C6(C)CCC(OC7OC(C(=O)O)C(O)C(OC8OCC(O)C(O)C8O)C7OC7OC(CO)C(O)C(O)C7O)C(C)(C=NNC(=O)CCCCCN7C(=O)C=CC7=O)C6CCC5(C)C3(C)CC4O)C(OC3OC(C)C(OC4OCC(O)C(OC5OC(CO)C(O)C(O)C5O)C4O)C(O)C3O)C2O)C(O)C(OC2OCC(O)C(O)C2O)C1O (stereo not drawn) [SO1861-(Ald-EMCH)-(Ac—OH)]	–	–	CMC [1]: >300 µM; CMC compared with native (underivatised) saponin ([1]; listed as SO1861-(Ald-EMCH)—(Ac—OH)): increased CMC values
CC(=O)OC1C(C)OC(OC2C(C)OC(OC(=O)C34CCC(C)(C)CC3C3=CCC5C6(C)CCC(OC7OC(C(=O)O)C(O)C(OC8OCC(O)C(O)C8O)C7OC7OC(CO)C(O)C(O)C7O)C(C)(C=NNC(=O)CCCCCN7C(=O)C=CC7=O)C6CCC5(C)C3(C)CC4O)C(OC3OC(C)C(OC4OCC(O)C(OC5OC(CO)C(O)C(O)C5O)C4O)C(O)C3O)C2O)C(O)C1OC1OCC(O)C(O)C1O (stereo not drawn) [Molecule 2]	increased CMC	–	–
CC(=O)OC1C(C)OC(OC2C(C)OC(OC(=O)[C@]34CCC(C)(C)CC3C3=CCC5[C@@]6(C)CC[C@H](OC7OC(C(=O)NCCN8C(=O)C=CC8=O)C(O)C(OC8OCC(O)C(O)C8O)C7OC7OC(CO)C(O)C(O)C7O)[C@@](C)(CO)C6CC[C@@]5(C)[C@]3(C)C[C@H]4O)C(OC3OC(C)C(OC4OCC(O)C(OC5OC(CO)C(O)C(O)C5O)C4O)C(O)C3O)C2O)C(O)C1OC1OCC(O)C(O)C1O (stereo partly drawn) [Molecule 20]	–	have the capacity to enhance the cytotoxic effect	–
CC(=O)OC1C(C)OC(OC2C(C)OC(OC(=O)C34CCC(C)(C)CC3C3=CCC5C6(C)CCC(OC7OC(C(=O)NC(C)(CO)CO)C(O)C(OC8OCC(O)C(O)C8O)C7OC7OC(CO)C(O)C(O)C7O)C(C)(C=NNC(=O)CCCCCN7C(=O)C=CC7=O)C6CCC5(C)C3(C)CC4O)C(OC3OC(C)C(OC4OCC(O)C(OC5OC(CO)C(O)C(O)C5O)C4O)C(O)C3O)C2O)C(O)C1OC1OCC(O)C(O)C1O (stereo not drawn) [Molecule 14]	–	have the capacity to enhance the cytotoxic effect	–
CC(=O)OC1C(C)OC(OC2C(C)OC(OC(=O)[C@]34CCC(C)(C)CC3C3=CCC5[C@@]6(C)CC[C@H](OC7OC(C(=O)NC(C)(CO)CO)C(O)C(OC8OCC(O)C(O)C8O)C7OC7OC(CO)C(O)C(O)C7O)[C@@](C)(CO)C6CC[C@@]5(C)[C@]3(C)C[C@H]4O)C(OC3OC(C)C(OC4OCC(O)C(OC5OC(CO)C(O)C(O)C5O)C4O)C(O)C3O)C2O)C(O)C1OC1OCC(O)C(O)C1O (stereo partly drawn) [Molecule 9]	–	have the capacity to enhance the cytotoxic effect	–
CC1OC(OC2C(C)OC(OC(=O)[C@]34CCC(C)(C)CC3C3=CCC5[C@@]6(C)CC[C@H](OC7OC(C(=O)O)C(O)C(OC8OCC(O)C(O)C8O)C7OC7OC(CO)C(O)C(O)C7O)[C@@](C)(CO)C6CC[C@@]5(C)[C@]3(C)C[C@H]4O)C(OC3OC(C)C(OC4OCC(O)C(OC5OC(CO)C(O)C(O)C5O)C4O)C(O)C3O)C2O)C(O)C(OC2OCC(O)C(O)C2O)C1O (stereo partly drawn) [SO1861-(Ald-OH)-(Ac—OH)]	–	–	CMC [1]: >280 µM; CMC compared with native (underivatised) saponin ([1]; listed as SO1861-(Ald-OH)—(Ac—OH)): increased CMC values
CC(=O)OC1C(C)OC(OC2C(C)OC(OC(=O)C34CCC(C)(C)CC3C3=CCC5C6(C)CCC(OC7OC(C(=O)NC(C)(CO)CO)C(O)C(OC8OCC(O)C(O)C8O)C7OC7OC(CO)C(O)C(O)C7O)C(C)(C=NNC(=O)CCCCCN7C(=O)C=CC7=O)C6CCC5(C)C3(C)CC4O)C(OC3OC(C)C(OC4OCC(O)C(OC5OC(CO)C(O)C(O)C5O)C4O)C(O)C3O)C2O)C(O)C1OC1OCC(O)C(O)C1O (stereo not drawn) [SO1861-(Ald-EMCH)-(Glu-AMPD)]	lower CMC values	–	CMC [1]: >30 µM
CC(=O)OC1C(C)OC(OC2C(C)OC(OC(=O)[C@]34CCC(C)(C)CC3C3=CCC5[C@@]6(C)CC[C@H](OC7OC(C(=O)NCCN8C(=O)C=CC8=O)C(O)C(OC8OCC(O)C(O)C8O)C7OC7OC(CO)C(O)C(O)C7O)[C@@](C)(CO)C6CC[C@@]5(C)[C@]3(C)C[C@H]4O)C(OC3OC(C)C(OC4OCC(O)C(OC5OC(CO)C(O)C(O)C5O)C4O)C(O)C3O)C2O)C(O)C1OC1OCC(O)C(O)C1O (stereo partly drawn) [SO1861-(Glu-AEM)-(Ald-OH)]	lower CMC values	–	–
CC(=O)OC1C(C)OC(OC2C(C)OC(OC(=O)[C@]34CCC(C)(C)CC3C3=CCC5[C@@]6(C)CC[C@H](OC7OC(C(=O)NCCN8C(=O)C=CC8=O)C(O)C(OC8OCC(O)C(O)C8O)C7OC7OC(CO)C(O)C(O)C7O)[C@@](C)(C=O)C6CC[C@@]5(C)[C@]3(C)C[C@H]4O)C(OC3OC(C)C(OC4OCC(O)C(OC5OC(CO)C(O)C(O)C5O)C4O)C(O)C3O)C2O)C(O)C1OC1OCC(O)C(O)C1O (stereo partly drawn) [Molecule 18]	–	display activity	–
CC1OC(OC2C(C)OC(OC(=O)[C@]34CCC(C)(C)CC3C3=CCC5[C@@]6(C)CC[C@H](OC7OC(C(=O)NCCN8C(=O)C=CC8=O)C(O)C(OC8OCC(O)C(O)C8O)C7OC7OC(CO)C(O)C(O)C7O)[C@@](C)(C=O)C6CC[C@@]5(C)[C@]3(C)C[C@H]4O)C(OC3OC(C)C(OC4OCC(O)C(OC5OC(CO)C(O)C(O)C5O)C4O)C(O)C3O)C2O)C(O)C(OC2OCC(O)C(O)C2O)C1O (stereo partly drawn) [Molecule 19]	–	display activity	–
CC(=O)OC1C(C)OC(OC2C(C)OC(OC(=O)[C@]34CCC(C)(C)CC3C3=CCC5[C@@]6(C)CC[C@H](OC7OC(C(=O)NC(C)(CO)CO)C(O)C(OC8OCC(O)C(O)C8O)C7OC7OC(CO)C(O)C(O)C7O)[C@@](C)(C=O)C6CC[C@@]5(C)[C@]3(C)C[C@H]4O)C(OC3OC(C)C(OC4OCC(O)C(OC5OC(CO)C(O)C(O)C5O)C4O)C(O)C3O)C2O)C(O)C1OC1OC(C)C(O)C(O)C1O (stereo partly drawn) [SO1861-Glu-AMPD]	lower CMC values	–	–
CC(=O)OC1C(C)OC(OC2C(C)OC(OC(=O)[C@]34CCC(C)(C)CC3C3=CCC5[C@@]6(C)CC[C@H](OC7OC(C(=O)NC(C)(CO)CO)C(O)C(OC8OCC(O)C(O)C8O)C7OC7OC(CO)C(O)C(O)C7O)[C@@](C)(CO)C6CC[C@@]5(C)[C@]3(C)C[C@H]4O)C(OC3OC(C)C(OC4OCC(O)C(OC5OC(CO)C(O)C(O)C5O)C4O)C(O)C3O)C2O)C(O)C1OC1OCC(O)C(O)C1O (stereo partly drawn) [SO1861-(Ald-OH)-(Glu-AMPD)]	lower CMC values	–	–

From patent publication US20230357310A1, “Saponin derivatives with improved therapeutic window” (priority 2019, published 2023)
